In patent US11427558B1, “Indazoles and azaindazoles as LRRK2 inhibitors” (ESCAPE Bio, Inc., priority 2019, dated 2022):
pIC50: −log10 of the molar value. One block for each compound: values may come before it.

Columns and labels:
[1] = target: Recombinant wild type LRRK2 protein (Homo sapiens (Human), UniProt Q5S007); test: LRRK2 kinase activity, LanthaScreen TR-FRET assay (wild type); assay type: biochemical; conditions: LRRKtide 400 nM, 25 μM ATP, 60 min; read-out: LRRK2 WT IC50
How it was run: (§1)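 Recombinant human wild-type or G2019S LRRK2 phosphorylated fluorescein-labelled LRRKtide (ERM-based) with ATP and serially diluted compound for 60 min at room temperature.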

[2] = target: Recombinant G2019S-LRRK2 protein (Homo sapiens (Human), UniProt Q5S007, G2019S); test: LRRK2 kinase activity, LanthaScreen TR-FRET assay (G2019S); assay type: biochemical; conditions: LRRKtide 400 nM, 25 μM ATP, 60 min
Sequence of Recombinant G2019S-LRRK2 protein (Q5S007 whole entry G2019S): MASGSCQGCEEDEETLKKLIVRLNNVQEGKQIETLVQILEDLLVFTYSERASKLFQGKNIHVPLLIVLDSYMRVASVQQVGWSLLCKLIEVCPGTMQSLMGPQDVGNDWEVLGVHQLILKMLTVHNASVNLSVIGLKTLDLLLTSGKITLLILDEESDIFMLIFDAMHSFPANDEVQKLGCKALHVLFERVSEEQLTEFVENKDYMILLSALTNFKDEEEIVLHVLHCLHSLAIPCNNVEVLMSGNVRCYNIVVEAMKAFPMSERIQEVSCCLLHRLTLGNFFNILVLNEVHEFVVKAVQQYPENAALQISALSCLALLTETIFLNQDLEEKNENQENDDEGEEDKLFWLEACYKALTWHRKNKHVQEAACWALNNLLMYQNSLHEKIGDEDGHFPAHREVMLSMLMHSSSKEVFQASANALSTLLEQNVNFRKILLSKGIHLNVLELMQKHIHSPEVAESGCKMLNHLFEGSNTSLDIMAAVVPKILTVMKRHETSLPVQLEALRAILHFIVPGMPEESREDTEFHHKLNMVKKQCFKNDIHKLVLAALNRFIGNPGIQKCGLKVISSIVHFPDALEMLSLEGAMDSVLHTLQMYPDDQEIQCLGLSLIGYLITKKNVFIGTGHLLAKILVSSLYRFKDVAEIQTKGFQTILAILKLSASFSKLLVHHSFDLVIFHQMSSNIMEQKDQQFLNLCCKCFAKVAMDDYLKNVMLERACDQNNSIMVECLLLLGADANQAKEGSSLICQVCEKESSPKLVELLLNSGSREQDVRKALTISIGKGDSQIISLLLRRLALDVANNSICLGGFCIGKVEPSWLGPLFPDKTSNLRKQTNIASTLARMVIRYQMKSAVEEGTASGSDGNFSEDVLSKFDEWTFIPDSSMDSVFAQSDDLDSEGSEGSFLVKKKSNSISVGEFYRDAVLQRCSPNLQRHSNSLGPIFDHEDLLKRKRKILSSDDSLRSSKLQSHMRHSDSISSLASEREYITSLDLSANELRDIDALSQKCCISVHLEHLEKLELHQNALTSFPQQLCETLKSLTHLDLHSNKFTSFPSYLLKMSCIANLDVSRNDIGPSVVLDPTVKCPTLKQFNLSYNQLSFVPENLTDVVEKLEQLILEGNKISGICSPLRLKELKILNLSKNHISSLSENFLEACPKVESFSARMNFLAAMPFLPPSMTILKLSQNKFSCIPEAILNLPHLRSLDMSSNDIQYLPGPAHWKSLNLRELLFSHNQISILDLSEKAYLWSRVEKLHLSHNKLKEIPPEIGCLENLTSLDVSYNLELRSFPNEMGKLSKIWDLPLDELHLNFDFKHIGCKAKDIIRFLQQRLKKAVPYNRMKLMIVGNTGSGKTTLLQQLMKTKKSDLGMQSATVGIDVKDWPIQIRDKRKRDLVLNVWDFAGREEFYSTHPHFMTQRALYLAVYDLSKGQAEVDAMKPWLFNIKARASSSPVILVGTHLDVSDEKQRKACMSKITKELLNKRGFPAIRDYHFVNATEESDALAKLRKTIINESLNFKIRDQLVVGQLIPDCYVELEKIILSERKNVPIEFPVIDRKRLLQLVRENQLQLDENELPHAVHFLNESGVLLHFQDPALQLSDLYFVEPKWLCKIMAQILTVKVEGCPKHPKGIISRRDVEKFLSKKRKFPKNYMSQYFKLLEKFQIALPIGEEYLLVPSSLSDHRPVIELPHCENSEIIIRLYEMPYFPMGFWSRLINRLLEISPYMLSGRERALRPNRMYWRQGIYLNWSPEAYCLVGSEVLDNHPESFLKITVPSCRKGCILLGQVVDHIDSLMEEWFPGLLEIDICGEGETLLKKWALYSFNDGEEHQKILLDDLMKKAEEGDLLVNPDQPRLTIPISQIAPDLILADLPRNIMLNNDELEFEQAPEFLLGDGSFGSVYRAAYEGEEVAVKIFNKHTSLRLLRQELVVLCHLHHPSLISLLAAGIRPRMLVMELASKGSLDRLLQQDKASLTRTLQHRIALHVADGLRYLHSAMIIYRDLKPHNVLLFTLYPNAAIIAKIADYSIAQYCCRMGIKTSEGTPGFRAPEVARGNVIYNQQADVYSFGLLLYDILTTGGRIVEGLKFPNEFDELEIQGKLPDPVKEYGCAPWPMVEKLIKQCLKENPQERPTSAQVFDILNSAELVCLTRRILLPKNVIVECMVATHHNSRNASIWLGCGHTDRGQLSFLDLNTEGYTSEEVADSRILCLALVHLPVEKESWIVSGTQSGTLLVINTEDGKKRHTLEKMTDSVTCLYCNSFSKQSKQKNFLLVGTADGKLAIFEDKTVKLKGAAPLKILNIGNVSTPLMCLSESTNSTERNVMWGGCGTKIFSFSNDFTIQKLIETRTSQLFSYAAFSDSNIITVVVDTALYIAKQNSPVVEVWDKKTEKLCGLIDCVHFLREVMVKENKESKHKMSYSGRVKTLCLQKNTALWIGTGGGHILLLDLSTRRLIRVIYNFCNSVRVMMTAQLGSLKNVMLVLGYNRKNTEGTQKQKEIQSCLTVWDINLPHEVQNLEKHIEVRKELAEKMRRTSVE
How it was run: as §1

Sequence of Recombinant wild type LRRK2 protein (Q5S007 whole entry): as the sequence (Q5S007 whole entry G2019S) above, with S2019G counted along it

Compound: Cc1cc(C#N)cnc1C(=O)Nc1ccc2[nH]nc(-c3cccc(C(F)(F)F)c3)c2c1 [Example 59, 5-Cyano-3-methyl-N-(3-(3-(trifluoromethyl)phenyl)-1H-indazol-5-yl)picolinamide]
pIC50 [1]: 6.00 to 7.00 | pIC50 [2]: > 7.00

Compound: COc1cc(F)cc(-c2n[nH]c3ccc(NC(=O)c4ncc(C#N)cc4C)cc23)c1 [Example 46, 5-Cyano-N-(3-(3-fluoro-5-methoxyphenyl)-1H-indazol-5-yl)-3-methylpicolinamide]
pIC50 [1]: 6.00 to 7.00 | pIC50 [2]: > 7.00

pIC50 [1]: > 7.00 | pIC50 [2]: > 7.00
Compound: Cc1cnc(-c2n[nH]c3ccc(NC(=O)c4ncc(C#N)c(C)c4C)cc23)o1 [Example 207, 5-Cyano-3,4-dimethyl-N-(3-(5-methyloxazol-2-yl)-1H-indazol-5-yl)picolinamide]

Compound: Cc1c(C(=O)Nc2ccc3[nH]nc(-c4ccccc4)c3c2)cc(C#N)n1C [Example 26, 5-Cyano-1,2-dimethyl-N-(3-phenyl-1H-indazol-5-yl)-1H-pyrrole-3-carboxamide]
pIC50 [1]: 6.00 to 7.00 | pIC50 [2]: > 7.00

Compound: N#Cc1cccc(C(=O)Nc2ccc3[nH]nc(-c4ccoc4)c3c2)c1F [Example 77, 3-Cyano-2-fluoro-N-(3-(furan-3-yl)-1H-indazol-5-yl)benzamide]
pIC50 [1]: > 7.00 | pIC50 [2]: > 7.00

Compound: Cc1cc(C#N)cc(C(=O)Nc2ccc3[nH]nc(-c4ccoc4)c3c2)n1 [Example 78, 4-Cyano-N-(3-(furan-3-yl)-1H-indazol-5-yl)-6-methylpicolinamide]
pIC50 [1]: 6.00 to 7.00 | pIC50 [2]: > 7.00

Compound: COc1c(C#N)cccc1C(=O)Nc1ccc2[nH]nc(-c3cnco3)c2c1 [Example 176, 3-Cyano-2-methoxy-N-(3-(oxazol-5-yl)-1H-indazol-5-yl)benzamide]
pIC50 [1]: > 7.00 | pIC50 [2]: > 7.00

Compound: Cc1cc(C#N)cnc1C(=O)Nc1ccc2[nH]nc(-n3ccoc3=O)c2c1 [Example 242, 5-Cyano-3-methyl-N-(3-(2-oxooxazol-3(2H)-yl)-1H-indazol-5-yl)picolinamide]
pIC50 [1]: 5.00 to 6.00 | pIC50 [2]: > 7.00

Compound: Cc1cc(C#N)cnc1C(=O)Nc1ccc2[nH]nc(-c3ccoc3)c2n1 [Example 100, 5-Cyano-N-(3-(furan-3-yl)-1H-pyrazolo[4,3-b]pyridin-5-yl)-3-methylpicolinamide]
pIC50 [1]: > 7.00 | pIC50 [2]: > 7.00

Compound: COc1c(C#N)ccc(C)c1C(=O)Nc1ccc2[nH]nc(-c3cnco3)c2c1 [Example 234, 3-Cyano-2-methoxy-6-methyl-N-(3-(oxazol-5-yl)-1H-indazol-5-yl)benzamide]
pIC50 [1]: > 7.00 | pIC50 [2]: > 7.00

Compound: Cc1cc(C#N)c(C)nc1C(=O)Nc1ccc2[nH]nc(-c3ccoc3)c2c1 [Example 44, 5-Cyano-N-(3-(furan-3-yl)-1H-indazol-5-yl)-3,6-dimethylpicolinamide]
pIC50 [1]: > 7.00 | pIC50 [2]: > 7.00

Compound: Cc1c(C(=O)Nc2ccc3[nH]nc(C)c3c2)nc(Br)c(C#N)c1C [Example 302, 6-Bromo-5-cyano-3,4-dimethyl-N-(3-methyl-1H-indazol-5-yl)picolinamide]
pIC50 [1]: > 7.00 | pIC50 [2]: > 7.00

Compound: Cc1c(C#N)cnc(C(=O)Nc2ccc3[nH]nc(-c4cnn(C(C)C)c4)c3c2)c1C [Example 217, 5-Cyano-N-(3-(1-isopropyl-1H-pyrazol-4-yl)-1H-indazol-5-yl)-3,4-dimethylpicolinamide]
pIC50 [1]: > 7.00 | pIC50 [2]: > 7.00

Compound: N#Cc1ccc(C(=O)Nc2ccc3[nH]nc(-c4ccoc4)c3c2)c2ncccc12 [Example 142, 5-Cyano-N-(3-(furan-3-yl)-1H-indazol-5-yl)quinoline-8-carboxamide]
pIC50 [1]: 6.00 to 7.00 | pIC50 [2]: > 7.00

Compound: Cc1c(C#N)cnc(C(=O)Nc2ccc3[nH]nc(-c4ncco4)c3c2)c1C [Example 198, 5-Cyano-3,4-dimethyl-N-(3-(oxazol-2-yl)-1H-indazol-5-yl)picolinamide]
pIC50 [1]: 6.00 to 7.00 | pIC50 [2]: > 7.00

Compound: N#Cc1cnc(C(=O)Nc2ccc3[nH]nc(-c4ccoc4)c3c2)s1 [Example 65, 5-Cyano-N-(3-(furan-3-yl)-1H-indazol-5-yl)thiazole-2-carboxamide]
pIC50 [1]: > 7.00 | pIC50 [2]: > 7.00

Compound: Cc1c(C#N)cnc(C(=O)Nc2ccc3[nH]nc(-c4cnn(C5CC5)c4)c3c2)c1C [Example 335, 5-Cyano-N-(3-(1-cyclopropyl-1H-pyrazol-4-yl)-1H-indazol-5-yl)-3,4-dimethylpicolinamide]
pIC50 [1]: > 7.00 | pIC50 [2]: > 7.00

pIC50 [1]: 5.00 to 6.00 | pIC50 [2]: 6.00 to 7.00
Compound: COCc1n[nH]c2ccc(NC(=O)c3ncc(C#N)c(C)c3C)cc12 [Example 264, 5-Cyano-N-(3-(methoxymethyl)-1H-indazol-5-yl)-3,4-dimethylpicolinamide]

Compound: N#Cc1cccc(C(=O)Nc2ccc3[nH]nc(-c4cnco4)c3c2)c1OC(F)(F)F [Example 212, 3-Cyano-N-(3-(oxazol-5-yl)-1H-indazol-5-yl)-2-(trifluoromethoxy)benzamide]
pIC50 [1]: > 7.00 | pIC50 [2]: > 7.00

Compound: Cc1c(C#N)cnc(C(=O)Nc2cc3c(-c4cnco4)n[nH]c3cn2)c1C [Example 238, 5-Cyano-3,4-dimethyl-N-(3-(oxazol-5-yl)-1H-pyrazolo[3,4-c]pyridin-5-yl)picolinamide]
pIC50 [1]: 6.00 to 7.00 | pIC50 [2]: > 7.00

Compound: Cn1cc(C(=O)Nc2ccc3[nH]nc(-c4cnco4)c3c2)cc(C#N)c1=O [Example 224, 5-cyano-1-methyl-N-(3-(oxazol-5-yl)-1H-indazol-5-yl)-6-oxo-1,6-dihydropyridine-3-carboxamide]
pIC50 [1]: > 7.00 | pIC50 [2]: > 7.00

Compound: N#Cc1cc(C(=O)Nc2ccc3[nH]nc(-c4ccoc4)c3c2)no1 [Example 82, 5-Cyano-N-(3-(furan-3-yl)-1H-indazol-5-yl)isoxazole-3-carboxamide]
pIC50 [1]: > 7.00 | pIC50 [2]: > 7.00

Compound: Cc1c(C#N)cccc1C(=O)Nc1ccc2[nH]nc(-c3ccoc3)c2c1 [Example 19, 3-Cyano-N-(3-(furan-3-yl)-1H-indazol-5-yl)-2-methylbenzamide]
pIC50 [1]: > 7.00 | pIC50 [2]: > 7.00

Compound: Cc1cc(C#N)cnc1C(=O)Nc1ccc2[nH]nc(-c3ccc(C(=O)N4CCOCC4)cc3)c2c1 [Example 108, 5-Cyano-3-methyl-N-(3-(4-(morpholine-4-carbonyl)phenyl)-1H-indazol-5-yl)picolinamide]
pIC50 [1]: 6.00 to 7.00 | pIC50 [2]: > 7.00

pIC50 [1]: 5.00 to 6.00 | pIC50 [2]: 6.00 to 7.00
Compound: Cc1cc(C#N)cnc1C(=O)Nc1ccc2[nH]nc(-c3ccn(C)n3)c2c1 [Example 153, 5-Cyano-3-methyl-N-(3-(1-methyl-1H-pyrazol-3-yl)-1H-indazol-5-yl)picolinamide]

Compound: COc1cc(-c2n[nH]c3ccc(NC(=O)c4ccnc(C#N)c4F)cc23)ccn1 [Example 170, 2-Cyano-3-fluoro-N-(3-(2-methoxypyridin-4-yl)-1H-indazol-5-yl)isonicotinamide]
pIC50 [1]: 6.00 to 7.00 | pIC50 [2]: > 7.00

Compound: 4-Cyano-N-(3-(1-(difluoromethyl)-1H-pyrazol-3-yl)-1H-indazol-5-yl)-2-fluoro-6-methylbenzamide [Example 165]
pIC50 [1]: > 7.00 | pIC50 [2]: > 7.00

Compound: COc1ccc(-c2n[nH]c3ccc(NC(=O)c4ncc(C#N)cc4C)cc23)cc1 [Example 47, 5-Cyano-N-(3-(4-methoxyphenyl)-1H-indazol-5-yl)-3-methylpicolinamide]
pIC50 [1]: 6.00 to 7.00 | pIC50 [2]: > 7.00

Compound: COc1cc(-c2n[nH]c3ccc(NC(=O)c4ncc(C#N)cc4C)cc23)ccn1 [Example 48, 5-Cyano-N-(3-(2-methoxypyridin-4-yl)-1H-indazol-5-yl)-3-methylpicolinamide]
pIC50 [1]: 6.00 to 7.00 | pIC50 [2]: > 7.00
